Source: patent US20070161542A1, “Ptb1b photoprobes” (priority 2003, published 2007)

Tests used:
Assay type in all cases: biochemical
Flag-PTP1B(1-320) = biological target: T1, Flag-PTP1B(1-320) (Homo sapiens, UniProt P18031); assay: Enzyme kinetic assay (DiFMUP), Flag-PTP1B; settings: for IC50 shift in the presence of 0.1% protein: 0.1% protein (HSA) vs none; for IC50: in the dark; for Ki: non-irradiated probes, competitive, reversible inhibitors of PTP1B
T1 construct: Flag-PTP1B (residues 1-320 as a flag fusion); made in house
T1 sequence (P18031 1-320): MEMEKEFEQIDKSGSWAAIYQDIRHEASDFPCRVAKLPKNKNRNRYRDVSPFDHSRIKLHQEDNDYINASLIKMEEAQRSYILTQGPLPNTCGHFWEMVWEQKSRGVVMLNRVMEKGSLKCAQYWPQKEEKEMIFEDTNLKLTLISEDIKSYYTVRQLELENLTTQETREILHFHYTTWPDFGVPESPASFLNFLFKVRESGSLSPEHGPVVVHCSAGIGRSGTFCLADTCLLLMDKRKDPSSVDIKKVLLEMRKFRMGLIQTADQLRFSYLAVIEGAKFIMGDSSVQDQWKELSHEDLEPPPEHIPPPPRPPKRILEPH
Description: (§1) Protein tyrosine phosphatases used in this study were expressed and purified using published procedures, as follows: (a) Flag-PTP1B (residues 1-320 as a flag fusion), Huyer et al. (29). (b) Flag-TCPTP (residues 1-281 as a flag fusion), Asante-Appiah et al. (30). (c) Flag-CD45 (residues 556-1268 as a flag fusion), Wang et al. (31). (d) Mutant C215S-PTP1B (residues 1-320 as a gst fusion), Skorey et al. (28). (e) Infected SF9 cell lysate expressing full-length PTP1B (as a flag fusion), Cromlish et al. (25). For studies using H2O2-inactivated Flag-PTP1B, 100 μl of 2 μg/ml PTP1B was incubated with 100 μl of 1 mM or 20 mM H2O2 for 15 min to obtain 50% or 100% inactivated enzyme respectively as determined by the enzyme kinetic assay.
Kinetic measurements were performed using a Spectromax Gemini fluorescent plate reader (Molecular Devices, Sunnyvale, Calif.) in a 96-well plate format. Briefly, to 170 μl of BisTris buffer (50 mM BisTris, with and without 150 mM NaCl, 2 mM EDTA, 5 mM DMH, pH 6.3) containing 0-100 μM DiFMUP with or without 0.1% human serum albumin was added 10 μl of 10 or 50 μM photoprobe in water in a three-fold serial dilution. The reaction was initiated by the addition of 20 μl of 0.04 μg/ml Flag-PTP1B, Flag-TCPTP (0.04 μg/ml) or Flag-CD45 (0.01 μg/ml) in BisTris buffer containing 20% glycerol and 0.01% Triton X-100. The conversion of DiFMUP to DiFMU was monitored continuously for 5 min with excitation at 360 nm and emission at 450 nm (cutoff filter at 435 nm). IC50 values were calculated by nonlinear regression fit of the initial rates versus inhibitor concentration obtained using 10 μM DiFMUP using the Softmax Pro software (version 3.11, Molecular Devices). Ki values were determined by non-linear regression fit of the initial rates versus substrate concentration at various inhibitor concentrations using the kinetic equation software from Grafit software (Erithacus Software).

Flag-TCPTP = biological target: T2, Flag-TCPTP (Homo sapiens, UniProt P17706); assay: Enzyme kinetic assay (DiFMUP), Flag-TCPTP; settings: in the dark, 10 μM DiFMUP
T2 construct: Flag-TCPTP (residues 1-281 as a flag fusion); made in house
T2 sequence (P17706 1-281): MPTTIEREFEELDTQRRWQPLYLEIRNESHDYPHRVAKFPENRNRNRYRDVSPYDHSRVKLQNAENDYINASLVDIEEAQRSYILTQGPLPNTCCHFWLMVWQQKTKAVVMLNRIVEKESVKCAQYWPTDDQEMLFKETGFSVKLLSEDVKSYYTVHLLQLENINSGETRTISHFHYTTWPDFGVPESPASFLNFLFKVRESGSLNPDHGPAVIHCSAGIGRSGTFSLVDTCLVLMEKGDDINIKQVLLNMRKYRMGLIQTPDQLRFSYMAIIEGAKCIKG
Description: as §1
(§2) Kinetic measurements were performed using a Spectromax Gemini fluorescent plate reader (Molecular Devices, Sunnyvale, Calif.) in a 96-well plate format. […] The conversion of DiFMUP to DiFMU was monitored continuously for 5 min with excitation at 360 nm and emission at 450 nm (cutoff filter at 435 nm). […] Ki values were determined by non-linear regression fit of the initial rates versus substrate concentration at various inhibitor concentrations using the kinetic equation software from Grafit software (Erithacus Software).

Flag-CD45 = biological target: T3, Flag-CD45 (Mus musculus, UniProt P06800); assay: Enzyme kinetic assay (DiFMUP), Flag-CD45; settings: Flag-CD45, in the dark, 10 μM DiFMUP
T3 construct: Flag-CD45 (residues 556-1268 as a flag fusion); made in house
T3 sequence (P06800 581-1293 limits assumed): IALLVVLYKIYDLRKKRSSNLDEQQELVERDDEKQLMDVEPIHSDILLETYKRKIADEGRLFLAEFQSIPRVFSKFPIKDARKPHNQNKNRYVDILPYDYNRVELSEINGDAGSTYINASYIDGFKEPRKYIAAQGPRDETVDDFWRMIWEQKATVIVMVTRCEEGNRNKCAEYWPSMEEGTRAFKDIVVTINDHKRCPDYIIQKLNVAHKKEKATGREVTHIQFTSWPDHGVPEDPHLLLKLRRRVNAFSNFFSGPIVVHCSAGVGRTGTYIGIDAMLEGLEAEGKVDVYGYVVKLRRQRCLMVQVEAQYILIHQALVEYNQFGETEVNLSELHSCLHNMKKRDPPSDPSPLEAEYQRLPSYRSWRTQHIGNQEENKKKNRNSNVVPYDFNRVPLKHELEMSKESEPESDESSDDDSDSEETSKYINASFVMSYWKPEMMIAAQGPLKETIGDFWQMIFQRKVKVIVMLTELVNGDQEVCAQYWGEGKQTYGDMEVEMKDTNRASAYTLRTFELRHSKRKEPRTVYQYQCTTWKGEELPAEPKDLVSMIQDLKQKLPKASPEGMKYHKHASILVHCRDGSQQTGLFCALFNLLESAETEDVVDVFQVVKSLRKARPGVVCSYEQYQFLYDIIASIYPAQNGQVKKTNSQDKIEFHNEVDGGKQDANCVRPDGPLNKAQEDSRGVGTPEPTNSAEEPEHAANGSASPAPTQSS
Description: as §1, §2

[1] = Flag-PTP1B(1-320), 10 μM DiFMUP

## NC(=O)[C@H](Cc1ccc(C(F)(F)P(=O)(O)O)cc1)NC(=O)[C@H](Cc1ccc(C(F)(F)P(=O)(O)O)cc1)NC(=O)c1cc(I)cc(C2(C(F)(F)F)N=N2)c1 [Example 9, 4-(Difluoro(phosphono)methyl)-N-(3-iodo-5-(3-(trifluoromethyl)-3H-diaziren-3-yl)benzoyl)-L-phenylalanyl-4-(difluoro(phosphono)methyl)-L-phenylalaninamide]
Flag-PTP1B(1-320)
  IC50 shift in the presence of 0.1% protein: not significantly affected
  Ki: 5 nM
Flag-PTP1B(1-320); Fla-PTP1B + 0.1% HSA
  IC50: 14 nM
Flag-PTP1B(1-320); [1]
  IC50: 11 nM
Flag-TCPTP
  IC50: 6 nM
Flag-CD45
  IC50: 12600 nM

## NC(=O)[C@H](Cc1ccc(C(F)(F)P(=O)(O)O)c(Br)c1)NC(=O)[C@H](Cc1ccc(C(F)(F)P(=O)(O)O)c(Br)c1)NC(=O)c1cc(I)cc(C2(C(F)(F)F)N=N2)c1 [Example 1, Tetraamnionium 3-bromo-4-(difluoro(phosphonato)methyl)-N-(3-iodo-5-(3-(trifluoromethyl)-3H-diaziren-3-yl)benzoyl)-L-phenylalanyl-3-bromo-4-(difluoro(phosphonato)methyl)-L-phenylalaninamide]
Flag-PTP1B(1-320)
  IC50 shift in the presence of 0.1% protein: 7 fold
  Ki: 0.1 nM
Flag-PTP1B(1-320); Fla-PTP1B + 0.1% HSA
  IC50: 1.5 nM
Flag-PTP1B(1-320); [1]
  IC50: 0.2 nM
Flag-TCPTP
  IC50: 0.1 nM
Flag-CD45
  IC50: 490 nM
